From patent US20230399312A1, “SUBSTITUTED PYRIMIDINES AND METHODS OF USE” (THERAVANCE BIOPHARMA R&D IP, LLC, priority 2020, published 2023) come the findings set out here.

The target in experiment [1] is T1, recombinant human ALK5 (TGF-βR1) protein (Homo sapiens, UniProt P36897).
T1 construct: purchased Life Technologies PR9075A
T1 sequence (P36897 34-503): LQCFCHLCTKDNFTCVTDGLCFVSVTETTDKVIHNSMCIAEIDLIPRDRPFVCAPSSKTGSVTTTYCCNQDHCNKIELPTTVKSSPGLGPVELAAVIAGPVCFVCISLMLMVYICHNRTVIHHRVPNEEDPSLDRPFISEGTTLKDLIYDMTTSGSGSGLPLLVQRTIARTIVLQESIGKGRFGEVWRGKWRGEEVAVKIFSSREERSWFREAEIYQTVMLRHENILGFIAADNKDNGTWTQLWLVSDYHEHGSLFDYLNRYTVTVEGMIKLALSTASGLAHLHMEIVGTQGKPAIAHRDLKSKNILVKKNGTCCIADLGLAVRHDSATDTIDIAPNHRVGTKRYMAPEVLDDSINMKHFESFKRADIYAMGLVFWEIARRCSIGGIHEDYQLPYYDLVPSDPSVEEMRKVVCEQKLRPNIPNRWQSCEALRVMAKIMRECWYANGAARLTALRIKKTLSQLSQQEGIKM
The experiment is described as follows: Biochemical ALK5 (TGF-βR1) assay to measure pKi (LANCE Ultra ULight kinase assay). Conditions: apparent pKi, converted from pIC50 by Cheng-Prusoff. The essentials:
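Read-out was LANCE Ultra TR-FRET with a europium anti-phospho-Topo IIα Thr1342 antibody after EDTA quench. Kinase reaction ran 60 min at 37 °C with ATP added from a 125 μM 5× stock, after 60 min compound–enzyme equilibration at room temperature. Values are pKi from Cheng-Prusoff conversion of fitted pIC50.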
A general note: TR-FRET usually uses a lanthanide donor and a delayed reading to cut background.

Experiment [2] concerns TGF-β-stimulated SMAD3 phosphorylation in BEAS-2B cells. Briefly: Cellular ALK5 potency assay, inhibition of TGF-β stimulated pSMAD3 formation in BEAS-2B cells. The format is cell-based. The following applies: Homo sapiens, pSMAD3, TGF-β 10 ng/mL, read-out: BEAS2B pIC50 (converted). The essentials:
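Potency is expressed as pIC50, based on dose-dependent reduction of TGF-β-induced pSMAD3 AlphaLISA signal relative to stimulated cells without compound. BEAS-2B cells received compound 1 h before a 30 min, 10 ng/mL TGF-β challenge.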

In the case of `Cc1cccc(-c2nccc(Nc3ccnc(Nc4ccc(CN5CCC(O)CC5)cc4)n3)n2)n1` [Compound 405, 1-[[4-[[4-[[2-(6-methyl-2-pyridyl)pyrimidin-4-yl]amino]pyrimidin-2-yl]amino]phenyl]methyl] piperidin-4-ol], the Ki in experiment [1] is at most 0.0316 nM. Besides, the IC50 in experiment [2] is 25.1 to 158 nM.
For `Cc1cccc(-c2nccc(Nc3ccnc(Nc4ccc(C(=O)O)cc4)n3)n2)n1` [Compound 406, 4-[[4-[[2-(6-methyl-2-pyridyl)pyrimidin-4-yl]amino]pyrimidin-2-yl]amino]benzoic acid], the Ki in experiment [1] was 0.398 to 3.16 nM. For the same compound, in experiment [2], the IC50 is 200 to 1260 nM.
On the same counts, the results for `Cc1cccc(-c2nccc(Nc3ccnc(Nc4ccc(S(=O)(=O)N5CCOCC5)cc4)n3)n2)n1` [Compound 407, N4-[2-(6-methyl-2-pyridyl)pyrimidin-4-yl]-N2-(4-morpholinosulfonylphenyl) pyrimidine-2,4-diamine] are 0.0398 to 0.316 nM and 25.1 to 158 nM.
On the same counts, the results for `Fc1ccc(Cl)cc1-c1nccc(Nc2ccnc(Nc3ccc(NCCN4CCOCC4)cc3)n2)n1` [Compound 408, N4-[2-(5-chloro-2-fluoro-phenyl)pyrimidin-4-yl]-N2-[4-(2-morpholinoethylamino)phenyl] pyrimidine-2,4-diamine] are 0.398 to 3.16 nM and 25.1 to 158 nM.
Consider `Cc1cccc(-c2nccc(Nc3ccnc(Nc4ccc(CN5[C@@H](C)CNC[C@@H]5C)cc4)n3)n2)n1` [Compound 409, N2-[4-[[(2S,6S)-2,6-dimethylpiperazin-1-yl]methyl]phenyl]-N4-[2-(6-methyl-2-pyridyl)pyrimidin-4-yl]pyrimidine-2,4-diamine], for which the Ki in experiment [1] is 0.0398 to 0.316 nM. For the same compound, the IC50 in experiment [2] is 25.1 to 158 nM.
On the same counts, the results for `Cc1cccc(-c2nccc(Nc3ccnc(Nc4ccc(N5CCOCC5)cc4O)n3)n2)n1` [Compound 410, 2-[[4-[[2-(6-methyl-2-pyridyl)pyrimidin-4-yl]amino]pyrimidin-2-yl]amino]-5-morpholino-phenol] are 3.98 to 31.6 nM and 25.1 to 158 nM.
On the same counts, the results for `COC(=O)CC1CN(Cc2cccc(Nc3nccc(Nc4ccnc(-c5cccc(C)n5)n4)n3)c2)CCN1` (stereo not drawn) [Compound 411, methyl 2-[4-[[3-[[4-[[2-(6-methyl-2-pyridyl)pyrimidin-4-yl]amino]pyrimidin-2-yl]amino]phenyl]methyl]piperazin-2-yl]acetate] are 0.0398 to 0.316 nM and 25.1 to 158 nM.
On the same counts, the results for `Fc1ccc(Cl)cc1-c1nccc(Nc2ccnc(Nc3ccc(N4CCC(N5CCCC5)CC4)cc3)n2)n1` [Compound 412, N4-[2-(5-chloro-2-fluoro-phenyl)pyrimidin-4-yl]-N2-[4-(4-pyrrolidin-1-yl-1-piperidyl)phenyl]pyrimidine-2,4-diamine] are 0.0398 to 0.316 nM and 25.1 to 158 nM.
In the case of `Cc1cccc(-c2nccc(Nc3ccnc(Nc4ccc(NS(=O)(=O)C5CCNC5)cc4)n3)n2)n1` (stereo not drawn) [Compound 413, N-[4-[[4-[[2-(6-methyl-2-pyridyl)pyrimidin-4-yl]amino]pyrimidin-2-yl]amino]phenyl]pyrrolidine-3-sulfonamide], in experiment [1], the Ki was 0.398 to 3.16 nM. Besides, the IC50 in experiment [2] is 200 to 1260 nM.
On the same counts, the results for `Cc1cccc(-c2nccc(Nc3ccnc(Nc4ccc(CN5CCC(C(=O)O[C@@H]6CCN(C)C6)CC5)cc4)n3)n2)n1` [Compound 414, (R)-1-methylpyrrolidin-3-yl 1-(4-((4-((2-(6-methylpyridin-2-yl)pyrimidin-4-yl)amino)pyrimidin-2-yl)amino)benzyl)piperidine-4-carboxylate] are 0.0398 to 0.316 nM and 25.1 to 158 nM.
On the same counts, the results for `CN(C)C1CCN(c2ccc(Nc3nccc(Nc4ccnc(-c5cc(Cl)ccc5F)n4)n3)cc2)CC1` [Compound 415, N4-[2-(5-chloro-2-fluoro-phenyl)pyrimidin-4-yl]-N2-[4-[4-(dimethylamino)-1-piperidyl]phenyl]pyrimidine-2,4-diamine] are 0.0398 to 0.316 nM and 25.1 to 158 nM.
On the same counts, the results for `Cc1cccc(-c2nccc(Nc3ccnc(Nc4ccc(N(C)C(=O)C5CCNCC5)cc4)n3)n2)n1` [Compound 416, N-methyl-N-[4-[[4-[[2-(6-methyl-2-pyridyl)pyrimidin-4-yl]amino]pyrimidin-2-yl]amino]phenyl]piperidine-4-carboxamide] are 0.0398 to 0.316 nM and 200 to 1260 nM.
Regarding `Cc1cccc(-c2nccc(Nc3ccnc(Nc4ccc(CN5CCS(=O)(=O)CC5)cc4)n3)n2)n1` [Compound 417, N2-[4-[(1,1-dioxo-1,4-thiazinan-4-yl)methyl]phenyl]-N4-[2-(6-methyl-2-pyridyl)pyrimidin-4-yl]pyrimidine-2,4-diamine], the Ki in experiment [1] was 0.0398 to 0.316 nM. For the same compound, the IC50 in experiment [2] was 25.1 to 158 nM.
On the same counts, the results for `Cc1cccc(-c2nccc(Nc3ccnc(Nc4ccc(N5CCNCC5)cc4)n3)n2)n1` [Compound 418, N4-(2-(6-methylpyridin-2-yl)pyrimidin-4-yl)-N2-(4-(piperazin-1-yl)phenyl)pyrimidine-2,4-diamine] are 0.0398 to 0.316 nM and 25.1 to 158 nM.
`Cc1cccc(-c2nccc(Nc3ccnc(Nc4cc(NC(=O)C5CCNCC5)c5c(c4)OCCO5)n3)n2)n1` [Compound 419, N-[7-[[4-[[2-(6-methyl-2-pyridyl)pyrimidin-4-yl]amino]pyrimidin-2-yl]amino]-2,3-dihydro-1,4-benzodioxin-5-yl]piperidine-4-carboxamide]: in experiment [1], the Ki is 0.0398 to 0.316 nM. The IC50 in experiment [2] is 25.1 to 158 nM.
For `Cc1cccc(-c2nccc(Nc3ccnc(Nc4cccc(S(=O)(=O)NCCN(C)C)c4)n3)n2)n1` [Compound 420, N-[2-(dimethylamino)ethyl]-3-[[4-[[2-(6-methyl-2-pyridyl)pyrimidin-4-yl]amino]pyrimidin-2-yl]amino]benzenesulfonamide], the Ki in experiment [1] is 0.0398 to 0.316 nM. Further, in experiment [2], the IC50 is 25.1 to 158 nM.
On the same counts, the results for `Cc1cccc(-c2nccc(Nc3ccnc(Nc4ccc(C)c(N)c4)n3)n2)n1` [Compound 421, N2-(3-amino-4-methyl-phenyl)-N4-[2-(6-methyl-2-pyridyl)pyrimidin-4-yl]pyrimidine-2,4-diamine] are 0.0398 to 0.316 nM and at most 20 nM.
In the case of `Cc1cccc(-c2nccc(Nc3ccnc(Nc4ccc(N5CCN[C@@H](C(=O)O)C5)cc4)n3)n2)n1` [Compound 422, (2R)-4-[4-[[4-[[2-(6-methyl-2-pyridyl)pyrimidin-4-yl]amino]pyrimidin-2-yl]amino]phenyl]piperazine-2-carboxylic acid], the Ki in experiment [1] was 0.0398 to 0.316 nM. In experiment [2], the IC50 was 200 to 1260 nM.
On the same counts, the results for `Cc1cccc(-c2nccc(Nc3ccnc(Nc4cccc(C(=O)O)c4)n3)n2)n1` [Compound 423, 3-[[4-[[2-(6-methyl-2-pyridyl)pyrimidin-4-yl]amino]pyrimidin-2-yl]amino]benzoic acid] are 0.398 to 3.16 nM and 1580 to 10000 nM.
On the same counts, the results for `Cc1cccc(-c2nccc(Nc3ccnc(Nc4cccc(CN5C6CCC5CNC6)c4)n3)n2)n1` [Compound 424, N2-[3-(3,8-diazabicyclo[3.2.1]octan-8-ylmethyl)phenyl]-N4-[2-(6-methyl-2-pyridyl)pyrimidin-4-yl]pyrimidine-2,4-diamine] are 0.0398 to 0.316 nM and 25.1 to 158 nM.
On the same counts, the results for `Cc1cccc(-c2nccc(Nc3ccnc(Nc4ccc(-c5cnn(C(C)C)c5)cc4)n3)n2)n1` [Compound 425, N2-[4-(1-isopropylpyrazol-4-yl)phenyl]-N4-[2-(6-methyl-2-pyridyl)pyrimidin-4-yl]pyrimidine-2,4-diamine] are 0.398 to 3.16 nM and 25.1 to 158 nM.
